Experimental data from the NIST ThermoML archive (doi:10.1016/j.jct.2016.03.029).

Tests used:
[1] = xn = mol fraction of the nth substance listed; conditions: 100 kPa, Liquid; for speed of sound: Frequency=3 MHz, Sing-around technique in a fixed-path interferometer; for mass density: Vibrating tube method
[2] = refractive index (Na D-line) (dimensionless); xn = mol fraction of the nth substance listed; conditions: 100 kPa, Liquid, Standard Abbe refractometry

CCCC[n+]1ccn(C)c1.O=S(=O)([N-]S(=O)(=O)C(F)(F)F)C(F)(F)F + CN1CCCC1=O
Conditions | mass density, [1] [kg/m3] | refractive index, [2] | speed of sound, [1] [m/s]
298.15 K, x1 = 0.1051 | 1135.14 | 1.45767 | 1448.1
298.15 K, x1 = 0.2088 | 1209.84 | 1.45014 | 1385.2
298.15 K, x1 = 0.2926 | 1255.56 | 1.44539 | 1347.3
298.15 K, x1 = 0.3807 | 1293.95 | 1.44129 | 1317
298.15 K, x1 = 0.5019 | 1335.52 | 1.4368 | 1287.5
298.15 K, x1 = 0.5925 | 1360.41 | 1.43414 | 1271
298.15 K, x1 = 0.6982 | 1384.58 | 1.43169 | 1255.8
298.15 K, x1 = 0.7862 | 1401.58 | 1.42999 | 1245.6
298.15 K, x1 = 0.8895 | 1418.59 | 1.4283 | 1236.2
298.15 K, x1 = 1 | 1433.72 | 1.42671 | 1227.9
303.15 K, x1 = 0.1051 | 1130.6 | 1.45571 | 1430.8
303.15 K, x1 = 0.2088 | 1205.24 | 1.4483 | 1369.4
303.15 K, x1 = 0.2926 | 1250.89 | 1.44359 | 1332.5
303.15 K, x1 = 0.3807 | 1289.25 | 1.43954 | 1303.1
303.15 K, x1 = 0.5019 | 1330.79 | 1.4351 | 1274.3
303.15 K, x1 = 0.5925 | 1355.69 | 1.43244 | 1258.2
303.15 K, x1 = 0.6982 | 1379.86 | 1.43006 | 1243.5
303.15 K, x1 = 0.7862 | 1396.85 | 1.42842 | 1233.5
303.15 K, x1 = 0.8895 | 1413.85 | 1.42678 | 1224.4
303.15 K, x1 = 1 | 1428.92 | 1.42522 | 1216.8
308.15 K, x1 = 0.1051 | 1126.04 | 1.45375 | 1413.4
308.15 K, x1 = 0.2088 | 1200.63 | 1.44645 | 1353.5
308.15 K, x1 = 0.2926 | 1246.22 | 1.44178 | 1317.8
308.15 K, x1 = 0.3807 | 1284.55 | 1.43777 | 1289.2
308.15 K, x1 = 0.5019 | 1326.08 | 1.43337 | 1261.2
308.15 K, x1 = 0.5925 | 1350.96 | 1.43074 | 1245.5
308.15 K, x1 = 0.6982 | 1375.14 | 1.42842 | 1231.1
308.15 K, x1 = 0.7862 | 1392.14 | 1.42683 | 1221.5
308.15 K, x1 = 0.8895 | 1409.13 | 1.42524 | 1212.7
308.15 K, x1 = 1 | 1424.13 | 1.42373 | 1205.8
313.15 K, x1 = 0.1051 | 1121.51 | 1.45177 | 1396.4
313.15 K, x1 = 0.2088 | 1196.02 | 1.44455 | 1337.9
313.15 K, x1 = 0.2926 | 1241.59 | 1.43994 | 1303.1
313.15 K, x1 = 0.3807 | 1279.89 | 1.43596 | 1275.6
313.15 K, x1 = 0.5019 | 1321.38 | 1.43161 | 1248.3
313.15 K, x1 = 0.5925 | 1346.26 | 1.42904 | 1232.9
313.15 K, x1 = 0.6982 | 1370.44 | 1.42676 | 1218.9
313.15 K, x1 = 0.7862 | 1387.44 | 1.42522 | 1209.5
313.15 K, x1 = 0.8895 | 1404.42 | 1.42368 | 1201.2
313.15 K, x1 = 1 | 1419.36 | 1.42225 | 1195
318.15 K, x1 = 0.1051 | 1116.95 | 1.44978 | 1379.1
318.15 K, x1 = 0.2088 | 1191.41 | 1.44265 | 1322.3
318.15 K, x1 = 0.2926 | 1236.95 | 1.43809 | 1288.7
318.15 K, x1 = 0.3807 | 1275.22 | 1.43414 | 1262.1
318.15 K, x1 = 0.5019 | 1316.7 | 1.42983 | 1235.4
318.15 K, x1 = 0.5925 | 1341.57 | 1.42733 | 1220.3
318.15 K, x1 = 0.6982 | 1365.75 | 1.42509 | 1206.6
318.15 K, x1 = 0.7862 | 1382.75 | 1.42359 | 1197.5
318.15 K, x1 = 0.8895 | 1399.75 | 1.4221 | 1189.5
318.15 K, x1 = 1 | 1414.61 | 1.42076 | 1184.2
323.15 K, x1 = 0.1051 | 1112.42 | 1.44778 | 1361.8
323.15 K, x1 = 0.2088 | 1186.82 | 1.4407 | 1306.6
323.15 K, x1 = 0.2926 | 1232.32 | 1.43621 | 1274.3
323.15 K, x1 = 0.3807 | 1270.56 | 1.43228 | 1248.4
323.15 K, x1 = 0.5019 | 1312.04 | 1.42802 | 1222.5
323.15 K, x1 = 0.5925 | 1336.92 | 1.42562 | 1207.8
323.15 K, x1 = 0.6982 | 1361.1 | 1.42341 | 1194.4
323.15 K, x1 = 0.7862 | 1378.1 | 1.42193 | 1185.6
323.15 K, x1 = 0.8895 | 1395.1 | 1.42051 | 1177.9
323.15 K, x1 = 1 | 1409.88 | 1.41923 | 1173.6
